Reference: patent US20260027380A1, “TECHNIQUES FOR MAGNETIC NANOCLUSTER-BASED COMBINATION THERAPY” (William Marsh Rice University, priority 2022, published 2026)

Tested on: subcutaneous MC-38 tumor
Experiment: Tumor killing effect in vivo, subcutaneous MC-38 mouse tumor model
Design: species or system C57BL/6N mice
Experimental: The antitumor activity of IONC-AAPH in vivo was evaluated with a subcutaneous MC-38 mouse tumor model. The subcutaneous tumor was induced by inoculating MC-38 cells into the right flank of respective C57BL/6N mice. The mice were randomly divided into 6 groups (n=3): (i) saline, (ii) AAPH, (iii) IONC, (iv) IONC-AAPH, (v) IONC+AMF, and (vi) IONC-AAPH+AMF. When the tumor volume reached 150-200 mm^3, the mice were intratumorally injected with saline, AAPH (2 mM), IONC (5 mg Fe/mL), and IONC-AAPH (5 mg Fe/mL), respectively. After injection the mice in IONC+AMF and IONC-AAPH+AMF groups were subjected to AMF for 1 h. The temperature of the tumors injected with IONC or IONC-AAPH increased rapidly and reached above 45° C. within 5 min, as measured by an infrared thermal camera.
After applying AMF, the temperature in the tumor was much higher than in other parts of the body. […]
Tumor killing effect of IONC-AAPH in vivo: All animal work was approved by the Institutional Animal Care and Use Committee (IACUC) of Rice University. […] The direct tumor killing effect of IONC-AAPH treatment was evaluated with subcutaneous tumor-bearing mice. […] The temperature in the tumor was measured using a high-resolution infrared (IR) camera (E95, Teledyne FLIR). The tumor size was measured daily with a digital caliper, and the tumor volume was calculated as follow: volume=length×width^2/2. […]

CC(C)(N=NC(C)(C)C(=N)N)C(=N)N.Cl.Cl [AAPH, 2,2′-azobis(2-amidinopropane) dihydrochloride]
tumor tissue damage (H&E, TUNEL) (without AMF): no tumor tissue damage | tumor weight (without applying AMF): only slightly reduced the tumor weight
